Measured values reported in patent US20230184759A1, “IN VITRO METHOD FOR DETECTION OF INFECTIONS CAUSED BY PSEUDOMONAS AERUGINOSA” (CONSEJO SUPERIOR DE INVESTIGACIONES CIENTIFICAS (CSIC), priority 2020, published 2023).

Legend:
Type in all cases: binding, rabbit
[1] = tested on: As385; test: Competitive indirect ELISA for detection of PQS (As385, coating antigen I-5); conditions: for C.R. (Cross Reactivity): As385 (PQS) assay, relative to PQS
Method: (§1) The competitive assay was carried out in a 96 well Maxisorp flat-bottom plates, coated using 100 μL of a BSA conjugate solution in coating buffer pH=9.6. Then, plates were covered with adhesive plate sealer and incubated overnight at 4° C. The day after, plates were washed with PBST (4×300 μL) using the platewasher Biotek ELx405 HT. Sequentially, 50 μL of the corresponding sample solution, containing the analyte HHQ, PQS or HQNO (2 μM to 0.13 nM) or MH medium were added, followed by 50 μL addition of a fixed As dilution and left without agitation 30 min at RT. After another washing step, a 1/6000 dilution of goat AntiRabbit IgG-HRP in PBST was added and incubated 30 min at RT. After a final washing, 100 μL of a substrate solution was added and left 30 min at RT in the dark. Once the time was consumed, the enzymatic reaction was stopped by adding 50 μl of H2SO4 4M solution and the absorbances read at 450 nm. Absorbance data were plotted and analyzed using GraphPad software. The standard calibration curve was fitted to a four-parameter equation according to the following formula: […], where A is the maximum absorbance, B is the minimum absorbance, C is the concentration producing 50% of the maximal absorbance, and D is the slope at the inflection point of the sigmoid curve. Unless otherwise indicated, the data presented correspond to the average of at least two well replicates.
(§2) Regarding specificity studies, it was followed the experimental procedure for indirect competitive ELISA described above. It was assessed the avidity of As versus other quinolone effector molecules of the pqs system from P. aeruginosa. Each assay was run using HHQ, PQS and HQNO as analyte. Cross reactivity was calculated through the equation: […].

[2] = tested on: As382; test: Competitive indirect ELISA for detection of HHQ (As382, coating antigen I-7); conditions: for C.R. (Cross Reactivity): As382 (HHQ) assay, relative to HHQ
Method: as §1, §2

[3] = tested on: As389; test: Competitive indirect ELISA for detection of HQNO (As389, coating antigen I-5); conditions: for C.R. (Cross Reactivity): As389 (HQNO) assay, relative to HQNO
Method: as §1, §2

[4] = cross reactivity study, As385 (PQS) assay conditions
[5] = cross reactivity study, As382 (HHQ) assay conditions
[6] = cross reactivity study, As389 (HQNO) assay conditions

| Structure (SMILES) | C.R. (Cross Reactivity) [1] | IC50 [1, 4] | C.R. (Cross Reactivity) [2] | IC50 ([2]; MH diluted 1/5, As382 dil. 1/64000, I-7 0.156 μg/mL) | IC50 ([2]; PBST, As382 dil. 1/32000, I-7 0.313 μg/mL) | IC50 [2, 5] | C.R. (Cross Reactivity) [3] | IC50 [3, 6] | IC50 ([3]; MH diluted 1/5, As389 dil. 1/16000, I-5 0.250 μg/mL) | IC50 ([3]; PBS at pH = 6.5, As389 dil. 1, I-5 0.250 μg/mL) | IC50 ([1]; MH diluted 1/10, As385 dil. 1/64000, I-5 0.039 μg/mL) | IC50 ([1]; PBS + 0.01% Tween + 0.1 mM EDTA, As385 dil. 1/48000, I-5 0.039 μg/mL) |
| --- | --- | --- | --- | --- | --- | --- | --- | --- | --- | --- | --- | --- |
| CCCCCCCc1cc(=O)c2ccccc2[nH]1 [HHQ, 2-heptyl-4-quinolone] | 13.31% | 27.2 nM | 100.00% | 2.85 ± 0.296 nM | 4.59 ± 0.287 nM | 2.67 nM | 36.24% | 26.4 nM | – | – | – | – |
| CCCCCCCc1cc(=O)c2ccccc2n1O [HQNO, 2-heptyl-4-quinolone N-oxide] | 1.53% | 236 nM | 3.11% | – | – | 86 nM | 100.00% | 9.55 nM | 2.71 ± 0.035 nM | 4.2 ± 0.858 nM | – | – |
| CCCCCCCc1[nH]c2ccccc2c(=O)c1O [PQS, 2-heptyl-3-hydroxy-4-quinolone] | 100.00% | 3.62 nM | 7.16% | – | – | 37.3 nM | 5.41% | 177 nM | – | – | 6.05 ± 0.155 nM | 3.87 ± 0.529 nM |
